Toxic doses and inconclusive results are not listed. No stated cut-off is given here; in the data, active means T/C of 150% or more; inactive means T/C below 125%.
Test system: L1210 leukemia ip in BDF1 mice, survival T/C
Assay: NCI In Vivo Anticancer Drug Screen. Data for tumor model L1210 Leukemia (intraperitoneal) in B6D2F1 (BDF1) mice
Details: endpoint: mean survival time, higher = longer survival
Procedure, shortened: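 In this screen, tumor-bearing mice given compound are compared to those given vehicle, and their survival values are reported as a treated-to-control quotient.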

[1] = dose: 100.0 mg/kg/injection, schedule: Q04DX002 (ip), vehicle: Klucel (hydroxypropylcellulose) (HPC)
[2] = dose: 200.0 mg/kg/injection, schedule: Q04DX002 (ip), vehicle: Klucel (hydroxypropylcellulose) (HPC)
[3] = dose: 100.0 mg/kg/injection, schedule: Q04DX003 (ip), vehicle: saline with Tween-80
[4] = dose: 400.0 mg/kg/injection, schedule: Q04DX002 (ip), vehicle: Klucel (hydroxypropylcellulose) (HPC)
[5] = dose: 100.0 mg/kg/injection, schedule: Q04DX003 (ip), vehicle: Klucel (hydroxypropylcellulose) (HPC)
[6] = dose: 200.0 mg/kg/injection, schedule: Q04DX003 (ip), vehicle: Klucel (hydroxypropylcellulose) (HPC)
[7] = dose: 400.0 mg/kg/injection, schedule: Q04DX003 (ip), vehicle: Klucel (hydroxypropylcellulose) (HPC)
[8] = dose: 100.0 mg/kg/injection, schedule: Q01DX009 (ip), vehicle: saline
[9] = dose: 200.0 mg/kg/injection, schedule: Q01DX009 (ip), vehicle: saline
[10] = dose: 100.0 mg/kg/injection, schedule: Q01DX001 (ip), vehicle: saline
[11] = dose: 200.0 mg/kg/injection, schedule: Q01DX001 (ip), vehicle: saline
[12] = dose: 200.0 mg/kg/injection, schedule: Q04DX003 (ip), vehicle: saline with Tween-80
[13] = dose: 400.0 mg/kg/injection, schedule: Q04DX003 (ip), vehicle: saline with Tween-80
[14] = dose: 100.0 mg/kg/injection, schedule: Q01DX009 (ip), vehicle: Klucel (hydroxypropylcellulose) (HPC)
[15] = dose: 200.0 mg/kg/injection, schedule: Q01DX009 (ip), vehicle: Klucel (hydroxypropylcellulose) (HPC)

Measured: T/C

Cc1cc(C)c(NS(=O)(=O)c2ccccc2)c([N+](=O)[O-])c1
inactive: dose: 100.0 mg/kg/injection, schedule: Q04DX002 (ip), vehicle: saline with Tween-80 101 % of control | dose: 200.0 mg/kg/injection, schedule: Q04DX002 (ip), vehicle: saline with Tween-80 104 % of control | dose: 400.0 mg/kg/injection, schedule: Q04DX002 (ip), vehicle: saline with Tween-80 104 % of control

CCCCCCCCCCCCCCCCCCNC(=O)Nc1ccc(C)c(Cl)c1
inactive: [1] 90 % of control | [2] 93 % of control

COC(=O)c1ccccc1N=NN(C)CC(C)C
inactive: dose: 50.0 mg/kg/injection, schedule: Q01DX009 (ip), vehicle: saline with Tween-80 110 % of control | dose: 50.0 mg/kg/injection, schedule: Q04DX003 (ip), vehicle: saline with Tween-80 103 % of control | dose: 100.0 mg/kg/injection, schedule: Q01DX009 (ip), vehicle: saline with Tween-80 121 % of control | [3] 114 % of control

Nc1ccc(C(=O)NCC(=O)O)cc1
inactive: [1] 93 % of control | [2] 104 % of control | [4] 100 % of control

O=C(O)c1nc2ccccc2[nH]c1=O
inactive: [5] 88 % of control | [6] 92 % of control | [7] 87 % of control

O=C(O)C(O)C(O)C(=O)O (stereo not given)
inactive: [8] 106 % of control | [9] 104 % of control | dose: 400.0 mg/kg/injection, schedule: Q01DX009 (ip), vehicle: saline 102 % of control

N=C(N)c1ncn(C2CC(O)C(CO)O2)c1N (stereo not given)
inactive: [10] 106 % of control | [11] 103 % of control

COc1cccc(N(CCO)CCO)c1OC
inactive: dose: 3.75 mg/kg/injection, schedule: Q01DX Z (ip), vehicle: saline 93 % of control | dose: 7.5 mg/kg/injection, schedule: Q01DX Z (ip), vehicle: saline 93 % of control | dose: 15.5 mg/kg/injection, schedule: Q01DX Z (ip), vehicle: saline 97 % of control | dose: 31.0 mg/kg/injection, schedule: Q01DX Z (ip), vehicle: saline 97 % of control | dose: 62.5 mg/kg/injection, schedule: Q01DX Z (ip), vehicle: saline 96 % of control | dose: 125.0 mg/kg/injection, schedule: Q01DX Z (ip), vehicle: saline 101 % of control | dose: 250.0 mg/kg/injection, schedule: Q01DX Z (ip), vehicle: saline 97 % of control | dose: 500.0 mg/kg/injection, schedule: Q01DX Z (ip), vehicle: saline 101 % of control

CN=C(N)c1cccc(NC(=O)c2ccc(C(=O)Nc3cccc(C(N)=NC)c3)cc2)c1
inactive: dose: 15.0 mg/kg/injection, schedule: Q01DX Z (ip), vehicle: saline 109 % of control | dose: 30.0 mg/kg/injection, schedule: Q01DX Z (ip), vehicle: saline 93 % of control

CCSc1nc(C2NC(C(=O)O)CS2)cc(=O)[nH]1 (stereo not given)
inactive: dose: 50.0 mg/kg/injection, schedule: Q01DX001 (ip), vehicle: Klucel (hydroxypropylcellulose) (HPC) 98 % of control | dose: 100.0 mg/kg/injection, schedule: Q01DX001 (ip), vehicle: Klucel (hydroxypropylcellulose) (HPC) 98 % of control | dose: 200.0 mg/kg/injection, schedule: Q01DX001 (ip), vehicle: Klucel (hydroxypropylcellulose) (HPC) 97 % of control

COc1ccc(C(=O)c2ccccc2NC(C)=O)cc1
inactive: [3] 89 % of control | [12] 98 % of control | [13] 94 % of control

O=C(O)CN(Cc1ccccc1)Sc1ccccc1[N+](=O)[O-]
inactive: dose: 50.0 mg/kg/injection, schedule: Q01DX009 (ip), vehicle: other 98 % of control | dose: 100.0 mg/kg/injection, schedule: Q01DX009 (ip), vehicle: other 91 % of control | dose: 100.0 mg/kg/injection, schedule: Q04DX003 (ip), vehicle: other 98 % of control | dose: 200.0 mg/kg/injection, schedule: Q04DX003 (ip), vehicle: other 96 % of control

CC(C)(c1ccsc1)c1sccc1C(=O)O
inactive: [3] 100 % of control | [12] 87 % of control | [13] 87 % of control

CCO/C(C)=N/OC(=O)c1cc(Cl)ccc1Cl
inactive: [1] 98 % of control | [2] 110 % of control | [4] 113 % of control

Cc1ccc(-c2ccc(C)cc2[N+](=O)[O-])cc1
inactive: dose: 100.0 mg/kg/injection, schedule: Q01DX001 (ip), vehicle: carboxymethylcellulose (CMC) 91 % of control | dose: 200.0 mg/kg/injection, schedule: Q01DX001 (ip), vehicle: carboxymethylcellulose (CMC) 100 % of control | dose: 400.0 mg/kg/injection, schedule: Q01DX001 (ip), vehicle: carboxymethylcellulose (CMC) 102 % of control

CCN(CC)C(=O)c1ccc(C(Cl)(Cl)Cl)cc1
inactive: dose: 75.0 mg/kg/injection, schedule: Q01DX009 (ip), vehicle: saline sonified 91 % of control | [5] 87 % of control | dose: 150.0 mg/kg/injection, schedule: Q01DX009 (ip), vehicle: saline sonified 91 % of control | [6] 89 % of control | dose: 300.0 mg/kg/injection, schedule: Q01DX009 (ip), vehicle: saline sonified 87 % of control | [7] 91 % of control

c1ccc2c3c(sc2c1)CNCC3
inactive: dose: 25.0 mg/kg/injection, schedule: Q01DX009 (ip), vehicle: Klucel (hydroxypropylcellulose) (HPC) 107 % of control | dose: 50.0 mg/kg/injection, schedule: Q01DX009 (ip), vehicle: Klucel (hydroxypropylcellulose) (HPC) 101 % of control

O=C1CC(=O)N2CCCCC2N1 (stereo not given)
inactive: dose: 100.0 mg/kg/injection, schedule: Q01DX001 (ip), vehicle: alcohol 106 % of control | dose: 200.0 mg/kg/injection, schedule: Q01DX001 (ip), vehicle: alcohol 103 % of control | dose: 400.0 mg/kg/injection, schedule: Q01DX001 (ip), vehicle: alcohol 110 % of control

CCOC(=O)NCc1ccccc1
inactive: [14] 101 % of control | [5] 98 % of control | [15] 106 % of control | [6] 95 % of control | dose: 400.0 mg/kg/injection, schedule: Q01DX009 (ip), vehicle: Klucel (hydroxypropylcellulose) (HPC) 95 % of control | [7] 101 % of control

COC(=O)c1ccccc1C1=C(O)C(=O)C(c2ccccc2C(=O)OC)=C(O)C1=O
inactive: [14] 97 % of control | [15] 98 % of control

CC(=O)Nc1cccc(C(=O)O)c1O
inactive: [10] 100 % of control | [11] 105 % of control | dose: 400.0 mg/kg/injection, schedule: Q01DX001 (ip), vehicle: saline 100 % of control

CC1(C)CC[C@]2(C(=O)O)CC[C@]3(C)C(=CC[C@@H]4[C@@]5(C)CC[C@H](O)C(C)(C)[C@@H]5CC[C@]43C)[C@@H]2C1
inactive: dose: 50.0 mg/kg/injection, schedule: Q01DX009 (ip), vehicle: saline 94 % of control | dose: 100.0 mg/kg/injection, schedule: Q01DX001 (sc), vehicle: saline 103 % of control | [8] 94 % of control | dose: 100.0 mg/kg/injection, schedule: Q04DX002 (ip), vehicle: saline 97 % of control | dose: 200.0 mg/kg/injection, schedule: Q01DX001 (sc), vehicle: saline 103 % of control | [9] 97 % of control | dose: 200.0 mg/kg/injection, schedule: Q04DX002 (ip), vehicle: saline 97 % of control | dose: 400.0 mg/kg/injection, schedule: Q01DX001 (sc), vehicle: saline 103 % of control | dose: 400.0 mg/kg/injection, schedule: Q04DX002 (ip), vehicle: saline 94 % of control

Reference: PubChem BioAssay AID248 (DTP/NCI, 2004)
